{"source": "patent US7022663B2", "about": "(Yeda Research and Development Co., Ltd., priority 2000, dated 2006)", "molecules": {"B1": {"name": "MBP: myelin basic protein, natural component of the myelin sheath, injected in CFA to induce EAE (protein, UniProt P02686 1-304, looked up)", "Myelin basic protein": "MGNHAGKRELNAEKASTNSETNRGESEKKRNLGELSRTTSEDNEVFGEADANQNNGTSSQDTAVTDSKRTADPKNAWQDAHPADPGSRPHLIRLFSRDAPGREDNTFKDRPSESDELQTIQEDSAATSESLDVMASQKRPSQRHGSKYLATASTMDHARHGFLPRHRDTGILDSIGRFFGGDRGAPKRGSGKDSHHPARTAHYGSLPQKSHGRTQDENPVVHFFKNIVTPRTPPPSQGKGRGLSLSRFSWGAEGQRPGFGYGGRASDYKSAHKGFKGVDAQGTLSKIFKLGGRDSRSGSPMARR"}}, "key": {"[1]": {"test_system": "IL-10", "details": "oral, enteric coated capsules, MS patients"}, "[2]": {"test_system": "EAE", "details": "monkey, in vivo"}, "[3]": {"test_system": "IL-2", "details": "cited from earlier work"}, "[4]": {"test_system": "exacerbating-remitting multiple sclerosis", "details": "daily subcutaneous injections, phase III; cited from earlier work"}, "[5]": {"test_system": "Chronic-relapsing EAE", "from_the_text": "Chronic—relapsing EAE was induced in female Biozzi mice by the injection of mouse spinal cord homogenate (MSCH) in CFA, following by re-injection of the encephalitogen one week later, in the same manner."}, "[6]": {"test_system": "experimental allergic encephalomyelitis (EAE)", "details": "cited from earlier work"}, "[7]": {"test_system": "IFN-γ", "details": "cited from earlier work"}, "[8]": {"test_system": "IL-2", "details": "oral, enteric coated capsules, MS patients"}, "[9]": {"test_system": "T cell", "details": "Aharoni et al. 1997; cited from earlier work"}, "[10]": {"test_system": "EAE", "details": "enteric-coated tablets", "from_the_text": "As in Example 3B, observation began on day 8 and continued until the conclusion of the experiment, which, in this case, was day 57. […] EAE-related neurological signs appeared between day 14 and 54 as specified in Table 9. Animals were sacrificed when they reached score 4."}, "[11]": {"test_system": "EAE", "from_the_text": "EAE was induced in Lewis rats by the injection of guinea pig spinal cord homogenate in CFA into the hind legs."}, "[12]": {"test_system": "Th2", "details": "cited from earlier work"}, "[13]": {"test_system": "Experimental allergic Encephalomyelitis (EAE)", "method": "Rhesus monkeys were fed with the enteric coated capsules. 5 feedings before disease induction and 5 feedings after disease induction, on alternate days. Experimental allergic Encephalomyelitis (EAE) was induced by injecting 8 mg myelin basic protein (MBP) in complete Freund's adjuvant (CFA) intra-dermally into the leg. EAE symptoms were evaluated on the following scale:\nEvaluation of EAE clinical signs"}, "[14]": {"test_system": "relapsing-remitting form of EAE", "assay": "Induction of relapsing-remitting EAE in Cynamologus monkeys by MBP in CFA", "assay_type": "in vivo", "method": "A relapsing-remitting form of EAE was induced by the injection of emulsified MBP in CFA containing 3 mg/ml of Mycobacterium Tuberculosis (MT), intradermally into right & left footpads.\nObservation was initiated on day 8."}, "[15]": {"details": "oral solution daily from day 16"}, "[16]": {"details": "all dose groups, daily gavage of solution"}}, "note": "“And” between values parts separate entries of the source, which are not always exact repeats. Equal values may be shown once. Read-outs that look alike come from different tables or passages of the source."}
{"molecule": "L-glutamic acid polymer with L-alanine, L-lysine and L-tyrosine, acetate (salt) [Copolymer 1]", "values": [{"measurement": "change of IL-10", "setting": "[1]", "value": "increase"}, {"measurement": "Daily Clinical Score", "setting": "[2]", "value": 2}, {"measurement": "Incidence", "setting": "[2]", "value": "3/3 and 1/3"}, {"measurement": "Mean Disease Onset Day", "setting": "[2]", "value": "14.33 and 18.33 and 23"}, {"measurement": "most effective dosage", "setting": "[2]", "value": 10, "unit": "mg"}, {"measurement": "pattern of disease compared with placebo group", "setting": "[2]", "value": "no obvious improvement"}, {"measurement": "pro-GVHD IL-2 cytokine secretion", "setting": "[3]", "value": "prevented"}, {"measurement": "progression of disability", "setting": "[4]", "value": "slow"}, {"measurement": "relapse rate", "setting": "[4]", "value": "reduce"}, {"measurement": "EAE clinical symptoms of the second relapse", "setting": "[5]; oral solution 0.5, 2.5, 12.5 mg/kg/day from day 16, dose-dependent", "value": "reduced"}, {"measurement": "incidence of second relapse, severity of symptoms, duration of relapse", "setting": "[5]; [15]", "value": "suppressive effect was demonstrated in all parameters checked"}, {"measurement": "most effective dose", "setting": "[5]; [15]", "value": 12.5, "unit": "mg/kg"}, {"measurement": "effect on EAE", "setting": "[6]; induced by various encephalitogens including MSCH, MBP, PLP, MOG", "value": "suppress"}, {"measurement": "activity by injection", "setting": "[6]; injected subcutaneously, intra-peritoneally, intravenously or intramuscularly", "value": "active"}, {"measurement": "pro-GVHD IFN-γ cytokine secretion", "setting": "[7]", "value": "prevented"}, {"measurement": "change of IL-2", "setting": "[8]", "value": "decrease"}, {"measurement": "T cell proliferation in response to host cell", "setting": "[9]", "value": "inhibited"}, {"measurement": "Incidence", "setting": "[10]; 10 mg group", "value": "3/3"}, {"measurement": "Mean Disease Onset Day", "setting": "[10]; 10 mg group", "value": 30}, {"measurement": "Mean Maximal Score", "setting": "[10]; 10 mg group", "value": 2.33}, {"measurement": "Mean Score", "setting": "[10]; 10 mg group", "value": "1.3 ± 0.56"}, {"measurement": "Incidence", "setting": "[10]; 20 mg group", "value": "3/3"}, {"measurement": "Mean Disease Onset Day", "setting": "[10]; 20 mg group", "value": 30}, {"measurement": "Mean Maximal Score", "setting": "[10]; 20 mg group", "value": 2.33}, {"measurement": "Mean Score", "setting": "[10]; 20 mg group", "value": "1.6 ± 0.53"}, {"measurement": "effect on incidence of the disease", "setting": "[10]; 10 and 20 mg", "value": "does not change the incidence of the disease"}, {"measurement": "most effective dosage", "setting": "[10]; 10 and 20 mg tested, confirms Example 3B", "value": 10, "unit": "mg"}, {"measurement": "% of sick rats", "setting": "[11]; [16]", "value": "reduced"}, {"measurement": "disease duration", "setting": "[11]; [16]", "value": "reduced"}, {"measurement": "disease onset", "setting": "[11]; [16]", "value": "delayed"}, {"measurement": "severity of disease (mean score and mean maximal score)", "setting": "[11]; [16]", "value": "reduced"}, {"measurement": "effect on EAE", "setting": "[11]; solution 0.1-10 mg/kg by gavage every day from induction to day 24", "value": "inhibited"}, {"measurement": "beneficial Th2 anti-inflammatory response", "setting": "[12]", "value": "induced"}, {"measurement": "signs of EAE", "setting": "[13]; 20 mg in enteric coated capsules, 5 feedings before and 5 after induction on alternate days, first study (FIG. 1), one animal", "value": "did not develop any signs of disease till day 60"}, {"measurement": "course of EAE upon treatment with 20 mg capsules", "setting": "[13]; animal first treated with 1 mg capsules, then 20 mg enteric coated capsules", "value": "healed completely"}, {"measurement": "outcome of EAE", "setting": "[13]; second study (FIG. 2), capsules not gastro-protective (opened in the stomach)", "value": "died from the disease"}, {"measurement": "protection from EAE", "setting": "[13]; second study (FIG. 2), enteric coated capsules 1, 10 and 20 mg", "value": "fully protected from EAE"}]}
{"molecule": "B1", "values": [{"measurement": "Daily Clinical Score", "setting": "[14]; Female Z-920, dose 2.5 mg, columns = days 14-32 after induction", "value": "3 and 5"}, {"measurement": "Daily Clinical Score", "setting": "[14]; Male Z-701, dose 10 mg, columns = days 14-32", "value": 0}, {"measurement": "Daily Clinical Score", "setting": "[14]; Male Z-1669, dose 5 mg, columns = days 14-32", "value": 0}]}
